Test results taken from paper PMC3684770 (Free Radical Biology & Medicine, 2013).
pEC50, pIC50: −log10 of the molar value. Like-named read-outs stand apart in the source and are kept apart here.

Columns and labels:
[1] = test system: 1321N1 astrocyte cell line; test: 1321N1 oxidative stress assay (serum withdrawal, DCF); conditions: for Emax: 1321-N1, 24 h, read-out: 1321N1 oxidative stress assay Max reduction; for 1321N1 oxidative stress assay Toxic dose: minimum dose at which toxicity was observed; for 1321N1 oxidative stress assay Max reduction: maximum % inhibition of DCF signal
Protocol: (§1) Media were then replaced with serum-free, phenol-free media for 5 h.

C6 astrocyte cell line = test: C6 oxidative stress assay (serum withdrawal, DCF); conditions: for Emax: 24 h, read-out: C6 oxidative stress assay Max reduction; for pIC50: read-out: C6 oxidative stress assay IC50; for C6 oxidative stress assay Toxic dose: minimum dose at which toxicity was observed
Protocol: as §1

Nrf2-ARE pathway = test: ARE reporter assay in CHO 4xARE-TK-GFP cells (Spectrum library hits); conditions: for Toxic dose: lowest dose at which a reduction in GFP fluorescence was observed; for maximal fold induction: CHO, read-out: Fold GFP induction; for maximal fold induction / Fold GFP induction: 24 h; for Fold GFP induction: average fold over baseline at the maximal response, CHO cells
Protocol: The Z′ score was calculated as follows Z′=1−(3SD^++3SD^−)/(Ave^+–Ave^−) where SD^+ = standard deviation of positive control wells; SD^− = standard deviation of negative control wells; Ave^+ = average fluorescence reading of positive control wells; Ave^− = average fluorescence reading of negative control wells.
Media was removed by hand and replaced (1 compound/well) with the Spectrum library diluted to 10 μM in 0.1% DMSO using a Q-bot liquid handling system (Genetix, New Milton, UK). […] The TK-GFP CHO ARE cell line was screened twice in a single point assay and the control TK-GFP CHO cell line was screened once to eliminate false positives.
The compounds were applied in triplicate to confluent cells in 96 well plates in serum free medium for 24 hours and the induction of GFP measured in a fluorescence plate reader.
In order to screen the Spectrum collection of 2000 molecules the reporter assay was optimised in […]. To assess the suitability of the assay for library screening, a Z’ score calculation was performed by treating alternate wells with vehicle (0.1% DMSO) and 10 µM Ebselen as a positive control (see calculation in Methods). […] The library was subsequently screened at a single point concentration of 10µM for every compound. Drug library dilutions and plating were performed with a Q-BOT liquid handling system and both the 4xARE-TK-GFP reporter cell line and TK-GFP control cell line were tested for their response to the compounds. Hits were identified as having data points more than three standard deviations above the background level, which was the average value of 24 wells treated with vehicle (0.1% DMSO) only. Hit compounds were checked to see if they generated a response in the control cell line, for example by non-specific activation of transcription or autofluorescence. […] The library screen was repeated once in the 4xARE –TK-CHO cell line and compounds classed as hits in both screens were taken forward for further assessment.

NSC34 cells = test: NSC34 oxidative stress assay (serum withdrawal, DCF); conditions: for Emax: NSC-34, 24 h, read-out: NSC34 oxidative stress assay Max reduction; for NSC34 oxidative stress assay Toxic dose: minimum dose at which toxicity was observed; for NSC34 oxidative stress assay Max reduction: maximum % inhibition of DCF signal, negative = prooxidant
Protocol: as §1

[2] = Homo sapiens, 1321-N1, read-out: 1321N1 oxidative stress assay IC50
[3] = CHO ARE reporter, 7-point concentration response

With `OC[C@H]1O[C@@H](n2cnc3c(NCc4ccco4)ncnc32)[C@H](O)[C@@H]1O` [Kinetin riboside] the Emax ([1]; Homo sapiens) was 25%, the pIC50 [1, 2] was 6.61 and the “1321N1 oxidative stress assay Toxic dose” value [1] was 3 µM. The Emax (C6 astrocyte cell line; Rattus norvegicus, Astrocyte) was 40%, the pIC50 (C6 astrocyte cell line; Rattus norvegicus, Astrocyte) was 5.42 and the “C6 oxidative stress assay Toxic dose” value (C6 astrocyte cell line) was 10 µM. For the same compound, the Toxic dose (Nrf2-ARE pathway) was 30 µM, the Emax (NSC34 cells; Mus musculus) was 0% and the “NSC34 oxidative stress assay Toxic dose” value (NSC34 cells) was 3 µM.

For `C=C1C(=O)O[C@H]2[C@H]1CC/C(C)=C/CC[C@@]1(C)O[C@@H]21` [Parthenolide], the Emax ([1]; Homo sapiens) was 47%, the pIC50 [1, 2] was 4.55 and the “1321N1 oxidative stress assay Toxic dose” value [1] was “None”. For the same compound, the Emax (C6 astrocyte cell line; Rattus norvegicus, Astrocyte) was 81%, the pIC50 (C6 astrocyte cell line; Rattus norvegicus, Astrocyte) was 5.51 and the “C6 oxidative stress assay Toxic dose” value (C6 astrocyte cell line) was “None”. It also gave a pEC50 (Nrf2-ARE pathway; Cricetulus griseus) of less than 4.00, a maximal fold induction (Nrf2-ARE pathway; Cricetulus griseus) of 2.77 and a Toxic dose (Nrf2-ARE pathway) of 100 µM. The Emax (NSC34 cells; Mus musculus) was 0% and the “NSC34 oxidative stress assay Toxic dose” value (NSC34 cells) was 1 µM.

For `CCc1cccc(CC)c1N(COC)C(=O)CCl` [Alachlor], the Emax ([1]; Homo sapiens) was 83%, the pIC50 [1, 2] was 5.71 and the “1321N1 oxidative stress assay Toxic dose” value [1] was “none”. The Emax (C6 astrocyte cell line; Rattus norvegicus, Astrocyte) was 62%, the pIC50 (C6 astrocyte cell line; Rattus norvegicus, Astrocyte) was 5.21 and the pEC50 (Nrf2-ARE pathway; Cricetulus griseus) was 5.48. For the same compound, the Emax (NSC34 cells; Mus musculus) was 0%.

For `COc1cc(O)cc(OC)c1OC` [Antiarol], the Emax ([1]; Homo sapiens) was 35%, the “1321N1 oxidative stress assay Toxic dose” value [1] was “none” and the Emax (C6 astrocyte cell line; Rattus norvegicus, Astrocyte) was 23%. The pIC50 (C6 astrocyte cell line; Rattus norvegicus, Astrocyte) was 5.52, the “C6 oxidative stress assay Toxic dose” value (C6 astrocyte cell line) was 10 µM and the Toxic dose (Nrf2-ARE pathway) was 100 µM. The Emax (NSC34 cells; Mus musculus) was -50% and the “NSC34 oxidative stress assay Toxic dose” value (NSC34 cells) was 10 µM.

`COc1cc(O)c(C)c(O)c1` [2,6-Dihydroxy-4-methoxytoluene] was tested, and the Emax ([1]; Homo sapiens) was 40%, the “1321N1 oxidative stress assay Toxic dose” value [1] was “None” and the Emax (C6 astrocyte cell line; Rattus norvegicus, Astrocyte) was 16%. The pIC50 (C6 astrocyte cell line; Rattus norvegicus, Astrocyte) was 5.28, the “C6 oxidative stress assay Toxic dose” value (C6 astrocyte cell line) was 10 µM and the pEC50 (Nrf2-ARE pathway; Cricetulus griseus) was 4.35. The Toxic dose (Nrf2-ARE pathway) was 100 µM, the Emax (NSC34 cells; Mus musculus) was 28% and the pIC50 (NSC34 cells; Mus musculus, NSC-34, read-out: NSC34 oxidative stress assay IC50) was roughly 5.49. For the same compound, the “NSC34 oxidative stress assay Toxic dose” value (NSC34 cells) was “None”.

In the case of `C=C(CC)C(=O)c1ccc(OCC(=O)O)c(Cl)c1Cl` [Ethacrynic acid, reference compound], the Emax ([1]; Homo sapiens) was 25%, the pIC50 [1, 2] was 5.52 and the Emax (C6 astrocyte cell line; Rattus norvegicus, Astrocyte) was 31%. The pIC50 (C6 astrocyte cell line; Rattus norvegicus, Astrocyte) was 5.52, the pEC50 (Nrf2-ARE pathway; Cricetulus griseus) was 4.85 and the Toxic dose (Nrf2-ARE pathway) was 100 µM. The Emax (NSC34 cells; Mus musculus) was -30% and the “NSC34 oxidative stress assay Toxic dose” value (NSC34 cells) was 10 µM.

In the case of 3β Hydroxydeoxydesacetoxy-7-oxogedunin, the “1321N1 oxidative stress assay Max reduction” value [1] was 62%, the “1321N1 oxidative stress assay Toxic dose” value [1] was “None” and the pIC50 ([1]; read-out: 1321N1 oxidative stress assay IC50, 24-h preconditioning, 6-h serum withdrawal, DCF fluorescence) was 5.40. The “C6 oxidative stress assay Max reduction” value (C6 astrocyte cell line; maximum % inhibition of DCF signal) was 67%, the “C6 oxidative stress assay Toxic dose” value (C6 astrocyte cell line) was “None” and the pIC50 (C6 astrocyte cell line; 24-h preconditioning, 6-h serum withdrawal, DCF fluorescence) was 5.51. For the same compound, the pEC50 (Nrf2-ARE pathway; [3]) was 5.06, the “Fold GFP induction” value (Nrf2-ARE pathway) was 2.55 fold and the Toxic dose (Nrf2-ARE pathway) was 30 µM. For the same compound, the “NSC34 oxidative stress assay Max reduction” value (NSC34 cells) was 0% and the “NSC34 oxidative stress assay Toxic dose” value (NSC34 cells) was 3 µM.

With `COc1ccc2c(c1)OC/C(=C/c1ccc(OC)c(OC)c1)C2=O` [Sappanone A trimethyl ether] the Emax ([1]; Homo sapiens) was 40%, the pIC50 [1, 2] was 6.55 and the “1321N1 oxidative stress assay Toxic dose” value [1] was “none”. For the same compound, the Emax (C6 astrocyte cell line; Rattus norvegicus, Astrocyte) was 27%, the “C6 oxidative stress assay Toxic dose” value (C6 astrocyte cell line) was “none” and the pEC50 (Nrf2-ARE pathway; Cricetulus griseus) was 5.46. It also gave a maximal fold induction (Nrf2-ARE pathway; Cricetulus griseus) of 1.99, a Toxic dose (Nrf2-ARE pathway) of 100 µM and an Emax (NSC34 cells; Mus musculus) of -60%. The “NSC34 oxidative stress assay Toxic dose” value (NSC34 cells) was “none”.

With `COc1cccc(O)c1O` [3-Methoxycatechol] the Emax ([1]; Homo sapiens) was 39%, the “1321N1 oxidative stress assay Toxic dose” value [1] was “none” and the Emax (C6 astrocyte cell line; Rattus norvegicus, Astrocyte) was 46%. The pIC50 (C6 astrocyte cell line; Rattus norvegicus, Astrocyte) was 5.92, the “C6 oxidative stress assay Toxic dose” value (C6 astrocyte cell line) was 10 µM and the pEC50 (Nrf2-ARE pathway; Cricetulus griseus) was 4.81. For the same compound, the Toxic dose (Nrf2-ARE pathway) was 100 µM, the Emax (NSC34 cells; Mus musculus) was -13% and the “NSC34 oxidative stress assay Toxic dose” value (NSC34 cells) was 0.3 µM.

“epigallocatechin-3-gallate [EGCG, reference compound]” showed a Cmax (Nrf2-ARE pathway; read-out: Cmax (concentration inducing a maximal response), CHO-4xARE-TK, 24 hours, serum free medium) of 100 µM.

For `CC(=O)O[C@@H]1CC2C(C)(C)C=CC(=O)[C@]2(C)C2CC[C@@]3(C)[C@H](c4ccoc4)OC(=O)C4OC43[C@@]21C` (stereo partly shown) [Isogedunin], the “1321N1 oxidative stress assay Max reduction” value [1] was 10%, the “1321N1 oxidative stress assay Toxic dose” value [1] was “None” and the pEC50 (Nrf2-ARE pathway; [3]) was less than 4.00. The “Fold GFP induction” value (Nrf2-ARE pathway) was 3.11 fold, the Toxic dose (Nrf2-ARE pathway) was “None” and the “NSC34 oxidative stress assay Max reduction” value (NSC34 cells) was 0%. The “NSC34 oxidative stress assay Toxic dose” value (NSC34 cells) was 1 µM.
